Columns and labels:
Neisseria = conditions: no catechol inducer
E. coli = conditions: low inoculum levels (50-1000 bacterial cells/ml)
[1] = system: Neisseria meningitidis strain B16B6; assay: Growth of Neisseria meningitidis culture (optical density at 600 nm) with and without norepinephrine bitartrate; format: cell-based; conditions: 100 micromolar added at 20 hours post-inoculation; MEM with NEAA, Vitox (iron) and ABS (iron chelator); OD 600 nm until 30 hours
Procedure: A culture of Neisseria meningitidis strain B16B6 (obtainable from the National Collection of Type Cultures, PHLS, Colindale, London, UK) was grown overnight at 37 deg C. on a GC agar plate (Oxoid) containing 2% Vitox (Oxoid). Vitox is a defined growth supplement suitable for enrichment of culture media and contains, amongst other ingredients, a source of iron.
At the end of incubation, about 20 bacterial colonies were harvested from the GC agar plate and suspended in 100 microliters of sterile phosphate-buffered saline (PBS; Gibco). The resulting bacterial suspension was then grown at 37 deg C for 4 hours on a GC agar plate containing 2% Vitox. At the end of incubation, the agar plate was flooded with 2 ml of sterile PBS and the bacterial suspension transferred into a sterile container. Optical density of the suspension was then determined at 600 nm. An optical density at 600 nm of 0.1 is equivalent to about 2×10^8 cfu/ml of Neisseria meningitidis. […]
The test medium was incubated at 37 deg C. with shaking at 180 rpm. The optical density of the culture was measured at 600 nm at 2, 4 and 20 hours post-inoculation of the media.
At 20 hours post-inoculation, the test sample was divided into halves. […] Both half-samples were then further incubated at 37 deg C., and optical density at 600 nm measured every 2 hours until 30 hours post-inoculation. […]

Neisseria meningitidis = assay: SDS-PAGE protein analysis of bacteria grown with and without norepinephrine bitartrate; format: cell-based
From the text: Samples of “test” bacteria grown as described above in MEM containing NEAA, iron chelator (ABS) and iron (Vitox) both in the presence and absence of norepinephrine bitartrate were taken. The samples were centrifuged to pellet bacteria. The bacterial pellets obtained were resuspended in 50 microliters of TE buffer (Sambrook et al: 1989, Molecular cloning: A Laboratory Manual, Cold Spring Harbour Laboratory Press, N.Y.) and 200 microliters of SDS-PAGE solubilisation buffer added (Sambrook et al: as above). The mixture was then heated at 70 deg C to solubilize proteins. Samples and appropriate molecular weight markers were then run on 10% and 12% SDS-polyacrylamide gels. The gels were then stained with Coomassie blue stain, according to a standard method, and protein bands observed.
Culture was carried out in MEM medium containing NEAA, iron (Vitox) and an iron chelator (ABS), either with norepinephrine bitartrate added to the culture (lane 1), or without norepinephrine bitartrate (lane 2). Molecular weight markers (kD) are also shown (lane M).

| Compound | growth of Neisseria under low-iron conditions (Neisseria) | growth of E. coli under low iron conditions and low inoculum levels (E. coli) | growth of a culture of Neisseria meningitidis [1] | newly expressed or overexpressed further proteins (SDS-PAGE) (Neisseria meningitidis; compared with bacteria cultured without norepinephrine) | proteins expressed only when grown in the presence of the inducer (SDS-PAGE, Coomassie) (Neisseria meningitidis; compared with bacteria grown in the absence of norepinephrine bitartrate, MEM with NEAA, Vitox, ABS) | over-expression of protein in comparison to bacteria grown without the inducer (SDS-PAGE) (Neisseria meningitidis; compared with bacteria grown without norepinephrine bitartrate) |
| --- | --- | --- | --- | --- | --- | --- |
| O=C(O)C(NCCNC(C(=O)O)c1ccccc1O)c1ccccc1O (stereo not drawn) [EDDA, ethylene diamine di-ortho-hydroxyphenyl-acetic acid] | do not reliably allow good growth | nor to a lesser extent do they allow good growth |  |  |  |  |
| NC[C@H](O)c1ccc(O)c(O)c1 [norepinephrine bitartrate] |  |  | accelerated growth | newly expressed or overexpressed further proteins with molecular weights of about 250 kDa, about 80 kDa, and about 28 kDa | expressed proteins, including proteins with molecular weights of about 100 KDa and about 55 KDa | over-expression of an approximately 20 KDa protein |
